ChEMBL document CHEMBL3751715, “Design and synthesis of an activity-based protein profiling probe derived from cinnamic hydroxamic acid” (Bioorg Med Chem, 2016)
In brackets after ≈: the same amount, converted by molar mass.

Tests used:
[1] = test system: Hepatitis C virus; test: Antiviral activity against HCV genotype 1b replicon infected in human HuH7 cells at 10 uM after 3 days by luciferase reporter assay; type: functional, Hepacivirus hominis; conditions: Huh-7, 72 h
[2] = Cytotoxicity against human HuH7 cells assessed as inhibition of cell viability at 10 uM after 3 days by CellTiter 96 aqueous one solution cell proliferation assay; type: cell-based, Huh-7; conditions: read-out: Activity
[3] = Half life in mouse liver microsomes at 1 uM by LC-MS/MS analysis in presence of UDPGA; type: ADME
[4] = Thermodynamic solubility of the compound in DPBS buffer at pH 7.4 after 72 hrs by UV spectrometric analysis; type: physicochemical; conditions: read-out: Therm_solubility
[5] = Half life in human liver microsomes at 1 uM by LC-MS/MS analysis in presence of UDPGA; type: ADME
[6] = Half life in human plasma at 1 to 24 hrs by LC-MS/MS analysis; type: ADME, cell-free
[7] = Half life in mouse plasma at 1 to 24 hrs by LC-MS/MS analysis; type: ADME, cell-free
[8] = Half life in human liver microsomes at 1 uM by LC-MS/MS analysis in presence of NADPH; type: ADME
[9] = test system: Hepatitis C virus; test: Antiviral activity against HCV assessed as reduction of viral replicon RNA level by RT-qPCR analysis; type: functional, organism-based; conditions: Hepacivirus hominis
[10] = Half life in mouse liver microsomes at 1 uM by LC-MS/MS analysis in presence of NADPH; type: ADME
[11] = Therapeutic index, ratio of CC50 for human HuH7 cells to EC50 for HCV genotype 1b replicon; type: cell-based, Huh-7; conditions: read-out: Ratio CC50/EC50
[12] = test system: Hepatitis C virus; test: Antiviral activity against HCV genotype 1b replicon infected in human HuH7 cells after 3 days by luciferase reporter assay; type: functional, organism-based, Hepacivirus hominis; conditions: Huh-7, 72 h
[13] = Cytotoxicity against human HuH7 cells assessed as cell viability after 3 days by CellTiter 96 aqueous one solution cell proliferation assay; type: cell-based, Huh-7
[14] = Inhibition of recombinant HCV genotype 1b NS3/4A protease expressed in Escherichia coli using Ac-DE-D(Edans)-EE-Abu-[COO]-AS-K(Dabcyl)-NH2 as substrate; parameters: species or system Hepatitis C virus subtype 1b
[15] = target: Matrilysin (Homo sapiens, UniProt P09237); test: Inhibition of human recombinant MMP7 expressed in Escherichia coli using (5-FAM/QXLTM) FRET peptide as substrate
[16] = target: Neutrophil collagenase (Homo sapiens, UniProt P22894); test: Inhibition of human recombinant MMP8 expressed in Escherichia coli using (5-FAM/QXLTM) FRET peptide as substrate
[17] = target: Histone deacetylase 11 (Homo sapiens, UniProt Q96DB2); test: Inhibition of N-terminal GST-tagged human HDAC11 expressed in baculovirus expression system using (Arg-His-Lys-Lys(Ac)) as substrate by plate reader analysis
[18] = target: Matrix metalloproteinase-14 (Homo sapiens, UniProt P50281); test: Inhibition of human recombinant MMP14 expressed in Escherichia coli using (5-FAM/QXLTM) FRET peptide as substrate
[19] = target: Histone deacetylase 1 (Homo sapiens, UniProt Q13547); test: Inhibition of full length C-terminal GST-tagged human HDAC1 expressed in Sf9 cells using (Arg-His-Lys-Lys(Ac)) as substrate by plate reader analysis
[20] = target: Histone deacetylase 2 (Homo sapiens, UniProt Q92769); test: Inhibition of full length C-terminal His-tagged human HDAC2 expressed in Sf9 cells using (Arg-His-Lys-Lys(Ac)) as substrate by plate reader analysis
[21] = target: Interstitial collagenase (Homo sapiens, UniProt P03956); test: Inhibition of human recombinant MMP1 expressed in Escherichia coli using (5-FAM/QXLTM) FRET peptide as substrate
[22] = target: Histone deacetylase 5 (Homo sapiens, UniProt Q9UQL6); test: Inhibition of full length N-terminal GST-tagged human HDAC5 expressed in Sf9 cells using (Boc-Lys(trifluoroacetyl)-AMC) as substrate by plate reader analysis
[23] = target: Histone deacetylase 3 (Homo sapiens, UniProt O15379); test: Inhibition of full length C-terminal His-tagged human HDAC3 expressed in baculovirus expression system using (Arg-His-Lys-Lys(Ac)) as substrate by plate reader analysis
[24] = test system: Hepatitis C virus subtype 1b; test: Inhibition of recombinant HCV genotype 1b NS5B Cdelta55 RNA dependent RNA polymerase at 10 uM incubated for 3 hrs using Oligo-U12 primer, UTP and Poly(A) template by scintillation proximity assay
[25] = target: Protein deacetylase HDAC6 (Homo sapiens, UniProt Q9UBN7); test: Inhibition of full length N-terminal GST-tagged human HDAC6 expressed in Sf9 cells using (Arg-His-Lys-Lys(Ac)) as substrate by plate reader analysis
[26] = target: Histone deacetylase 4 (Homo sapiens, UniProt P56524); test: Inhibition of N-terminal GST-tagged human HDAC4 expressed in baculovirus expression system using (Boc-Lys(trifluoroacetyl)-AMC) as substrate by plate reader analysis
[27] = target: Polyamine deacetylase HDAC10 (Homo sapiens, UniProt Q969S8); test: Inhibition of N-terminal GST-tagged human HDAC10 expressed in Sf9 cells using (Arg-His-Lys-Lys(Ac)) as substrate by plate reader analysis
[28] = target: Histone deacetylase 9 (Homo sapiens, UniProt Q9UKV0); test: Inhibition of C-terminal His-tagged human HDAC9 expressed in baculovirus expression system using (Boc-Lys(trifluoroacetyl)-AMC) as substrate by plate reader analysis
[29] = target: Histone deacetylase 8 (Homo sapiens, UniProt Q9BY41); test: Inhibition of full length human HDAC8 expressed in Escherichia coli using (Arg-His-Lys(Ac)-Lys(Ac)) as substrate by plate reader analysis
[30] = target: Collagenase 3 (Homo sapiens, UniProt P45452); test: Inhibition of human recombinant MMP13 expressed in Escherichia coli using (5-FAM/QXLTM) FRET peptide as substrate
[31] = target: Stromelysin-1 (Homo sapiens, UniProt P08254); test: Inhibition of human recombinant MMP3 expressed in Escherichia coli using (5-FAM/QXLTM) FRET peptide as substrate
[32] = target: Stromelysin-2 (Homo sapiens, UniProt P09238); test: Inhibition of human recombinant MMP10 expressed in Escherichia coli using (5-FAM/QXLTM) FRET peptide as substrate
[33] = target: Histone deacetylase 7 (Homo sapiens, UniProt Q8WUI4); test: Inhibition of N-terminal GST-tagged human HDAC7 expressed in baculovirus expression system using (Boc-Lys(trifluoroacetyl)-AMC) as substrate by plate reader analysis
[34] = target: Macrophage metalloelastase (Homo sapiens, UniProt P39900); test: Inhibition of human recombinant MMP12 expressed in Escherichia coli using (5-FAM/QXLTM) FRET peptide as substrate
[35] = target: Disintegrin and metalloproteinase domain-containing protein 17 (Homo sapiens, UniProt P78536); test: Inhibition of human recombinant TACE expressed in Sf21 cells using MCA-PLAQAV-Dpa-RSSSR-NH2 as substrate
[36] = target: Matrix metalloproteinase-9 (Homo sapiens, UniProt P14780); test: Inhibition of human recombinant MMP9 expressed in Escherichia coli using (5-FAM/QXLTM) FRET peptide as substrate
Sequence of Matrix metalloproteinase-9 (P14780 whole entry): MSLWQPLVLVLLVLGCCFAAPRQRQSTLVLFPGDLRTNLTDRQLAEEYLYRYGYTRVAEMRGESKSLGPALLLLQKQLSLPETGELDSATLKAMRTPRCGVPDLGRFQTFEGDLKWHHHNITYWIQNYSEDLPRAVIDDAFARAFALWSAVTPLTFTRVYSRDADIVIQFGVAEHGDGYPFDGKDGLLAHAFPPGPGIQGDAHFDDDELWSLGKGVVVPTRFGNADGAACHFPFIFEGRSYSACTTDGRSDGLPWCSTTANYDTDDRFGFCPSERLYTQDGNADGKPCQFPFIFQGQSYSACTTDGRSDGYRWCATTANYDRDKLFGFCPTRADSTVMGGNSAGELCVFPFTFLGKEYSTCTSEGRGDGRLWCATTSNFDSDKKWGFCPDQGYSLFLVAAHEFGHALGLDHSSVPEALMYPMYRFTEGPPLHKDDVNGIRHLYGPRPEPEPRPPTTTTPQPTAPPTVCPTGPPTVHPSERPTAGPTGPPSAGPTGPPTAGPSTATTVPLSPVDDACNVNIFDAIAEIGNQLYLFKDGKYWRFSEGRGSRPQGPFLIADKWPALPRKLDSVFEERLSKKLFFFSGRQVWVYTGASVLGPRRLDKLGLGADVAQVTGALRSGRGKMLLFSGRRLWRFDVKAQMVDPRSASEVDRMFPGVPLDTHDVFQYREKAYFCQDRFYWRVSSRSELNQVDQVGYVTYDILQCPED

Sequence of Matrilysin (P09237 whole entry): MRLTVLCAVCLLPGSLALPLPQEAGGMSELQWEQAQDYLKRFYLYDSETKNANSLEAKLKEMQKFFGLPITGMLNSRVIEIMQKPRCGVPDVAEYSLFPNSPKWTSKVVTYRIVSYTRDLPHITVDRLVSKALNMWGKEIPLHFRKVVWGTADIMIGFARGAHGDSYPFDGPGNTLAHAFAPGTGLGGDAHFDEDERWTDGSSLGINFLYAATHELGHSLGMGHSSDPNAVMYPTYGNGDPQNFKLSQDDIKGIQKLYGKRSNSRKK
Sequence of Stromelysin-1 (P08254 whole entry): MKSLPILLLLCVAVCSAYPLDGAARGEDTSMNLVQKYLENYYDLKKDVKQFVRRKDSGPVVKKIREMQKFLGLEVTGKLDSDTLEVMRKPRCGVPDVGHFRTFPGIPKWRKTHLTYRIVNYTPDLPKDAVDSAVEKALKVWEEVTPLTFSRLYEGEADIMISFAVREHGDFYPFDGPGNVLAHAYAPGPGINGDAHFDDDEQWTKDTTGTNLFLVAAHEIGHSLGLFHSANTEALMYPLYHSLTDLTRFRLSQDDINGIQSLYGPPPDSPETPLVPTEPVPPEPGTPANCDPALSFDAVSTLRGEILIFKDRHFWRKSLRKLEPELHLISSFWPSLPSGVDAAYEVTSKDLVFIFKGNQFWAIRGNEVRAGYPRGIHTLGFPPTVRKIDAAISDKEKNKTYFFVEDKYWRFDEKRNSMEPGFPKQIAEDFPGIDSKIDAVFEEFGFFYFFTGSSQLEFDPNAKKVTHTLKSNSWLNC
Sequence of Macrophage metalloelastase (P39900 whole entry, the tested form may be a part): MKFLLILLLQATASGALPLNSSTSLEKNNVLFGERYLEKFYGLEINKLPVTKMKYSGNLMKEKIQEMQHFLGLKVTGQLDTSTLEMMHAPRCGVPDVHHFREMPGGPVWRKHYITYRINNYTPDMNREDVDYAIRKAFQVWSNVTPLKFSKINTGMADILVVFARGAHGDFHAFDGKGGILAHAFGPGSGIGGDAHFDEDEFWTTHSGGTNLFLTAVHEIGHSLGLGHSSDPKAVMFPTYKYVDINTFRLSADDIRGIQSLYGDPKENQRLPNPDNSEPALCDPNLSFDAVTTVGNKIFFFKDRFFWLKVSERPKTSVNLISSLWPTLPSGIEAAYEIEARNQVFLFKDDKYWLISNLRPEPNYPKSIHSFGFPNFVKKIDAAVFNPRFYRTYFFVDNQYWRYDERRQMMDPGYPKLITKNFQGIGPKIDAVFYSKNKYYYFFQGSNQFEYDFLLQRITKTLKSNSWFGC
Sequence of Polyamine deacetylase HDAC10 (Q969S8 whole entry): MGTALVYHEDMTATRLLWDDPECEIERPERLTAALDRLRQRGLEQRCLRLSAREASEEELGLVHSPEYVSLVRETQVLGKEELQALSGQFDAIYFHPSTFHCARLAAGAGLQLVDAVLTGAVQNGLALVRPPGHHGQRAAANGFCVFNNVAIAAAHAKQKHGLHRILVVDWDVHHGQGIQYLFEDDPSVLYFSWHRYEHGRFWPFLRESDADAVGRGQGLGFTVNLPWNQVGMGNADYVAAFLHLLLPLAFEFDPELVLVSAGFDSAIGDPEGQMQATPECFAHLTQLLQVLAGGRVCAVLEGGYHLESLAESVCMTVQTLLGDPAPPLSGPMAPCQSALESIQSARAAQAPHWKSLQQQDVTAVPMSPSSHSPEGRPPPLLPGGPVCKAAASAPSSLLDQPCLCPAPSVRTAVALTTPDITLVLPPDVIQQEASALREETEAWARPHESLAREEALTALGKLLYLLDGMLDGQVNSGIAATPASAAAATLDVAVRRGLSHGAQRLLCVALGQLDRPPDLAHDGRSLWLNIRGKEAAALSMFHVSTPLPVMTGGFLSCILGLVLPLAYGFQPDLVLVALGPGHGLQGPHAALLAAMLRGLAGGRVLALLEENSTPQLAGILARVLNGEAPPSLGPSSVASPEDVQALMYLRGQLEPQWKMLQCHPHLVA
Sequence of Disintegrin and metalloproteinase domain-containing protein 17 (P78536 whole entry, the tested form may be a part): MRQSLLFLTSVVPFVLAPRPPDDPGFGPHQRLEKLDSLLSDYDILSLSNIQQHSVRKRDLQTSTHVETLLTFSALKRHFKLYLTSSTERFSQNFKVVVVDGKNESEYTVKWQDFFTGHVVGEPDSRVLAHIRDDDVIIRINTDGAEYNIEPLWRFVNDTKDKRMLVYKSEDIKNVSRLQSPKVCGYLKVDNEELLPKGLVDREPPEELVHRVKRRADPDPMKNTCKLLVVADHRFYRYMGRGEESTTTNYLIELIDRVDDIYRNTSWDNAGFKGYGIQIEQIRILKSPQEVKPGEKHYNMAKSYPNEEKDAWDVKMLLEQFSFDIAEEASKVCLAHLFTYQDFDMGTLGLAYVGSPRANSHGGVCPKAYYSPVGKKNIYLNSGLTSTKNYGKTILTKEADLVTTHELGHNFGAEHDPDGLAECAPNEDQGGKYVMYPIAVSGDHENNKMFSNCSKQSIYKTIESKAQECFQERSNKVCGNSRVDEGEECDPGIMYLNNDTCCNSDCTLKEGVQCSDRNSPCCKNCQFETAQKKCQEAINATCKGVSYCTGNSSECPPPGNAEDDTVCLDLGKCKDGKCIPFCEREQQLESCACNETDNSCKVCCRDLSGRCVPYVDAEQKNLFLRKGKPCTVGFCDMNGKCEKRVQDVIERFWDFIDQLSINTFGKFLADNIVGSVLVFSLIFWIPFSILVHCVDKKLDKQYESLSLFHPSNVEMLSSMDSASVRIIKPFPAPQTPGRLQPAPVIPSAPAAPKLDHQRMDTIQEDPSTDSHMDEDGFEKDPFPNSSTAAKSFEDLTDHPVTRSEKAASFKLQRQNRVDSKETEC
Sequence of Neutrophil collagenase (P22894 whole entry): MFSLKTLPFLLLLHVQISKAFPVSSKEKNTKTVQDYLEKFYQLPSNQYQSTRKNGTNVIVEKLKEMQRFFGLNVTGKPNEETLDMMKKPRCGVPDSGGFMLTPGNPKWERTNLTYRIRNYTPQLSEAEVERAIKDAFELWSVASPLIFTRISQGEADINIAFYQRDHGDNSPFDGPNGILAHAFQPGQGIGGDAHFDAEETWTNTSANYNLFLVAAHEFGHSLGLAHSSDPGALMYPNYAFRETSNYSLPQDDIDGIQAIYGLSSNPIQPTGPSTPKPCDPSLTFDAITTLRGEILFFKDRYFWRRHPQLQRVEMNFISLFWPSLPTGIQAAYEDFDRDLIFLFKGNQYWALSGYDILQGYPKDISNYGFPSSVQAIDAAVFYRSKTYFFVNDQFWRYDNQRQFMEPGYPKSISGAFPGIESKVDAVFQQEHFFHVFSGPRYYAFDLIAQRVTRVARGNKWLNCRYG
Sequence of Histone deacetylase 4 (P56524 whole entry): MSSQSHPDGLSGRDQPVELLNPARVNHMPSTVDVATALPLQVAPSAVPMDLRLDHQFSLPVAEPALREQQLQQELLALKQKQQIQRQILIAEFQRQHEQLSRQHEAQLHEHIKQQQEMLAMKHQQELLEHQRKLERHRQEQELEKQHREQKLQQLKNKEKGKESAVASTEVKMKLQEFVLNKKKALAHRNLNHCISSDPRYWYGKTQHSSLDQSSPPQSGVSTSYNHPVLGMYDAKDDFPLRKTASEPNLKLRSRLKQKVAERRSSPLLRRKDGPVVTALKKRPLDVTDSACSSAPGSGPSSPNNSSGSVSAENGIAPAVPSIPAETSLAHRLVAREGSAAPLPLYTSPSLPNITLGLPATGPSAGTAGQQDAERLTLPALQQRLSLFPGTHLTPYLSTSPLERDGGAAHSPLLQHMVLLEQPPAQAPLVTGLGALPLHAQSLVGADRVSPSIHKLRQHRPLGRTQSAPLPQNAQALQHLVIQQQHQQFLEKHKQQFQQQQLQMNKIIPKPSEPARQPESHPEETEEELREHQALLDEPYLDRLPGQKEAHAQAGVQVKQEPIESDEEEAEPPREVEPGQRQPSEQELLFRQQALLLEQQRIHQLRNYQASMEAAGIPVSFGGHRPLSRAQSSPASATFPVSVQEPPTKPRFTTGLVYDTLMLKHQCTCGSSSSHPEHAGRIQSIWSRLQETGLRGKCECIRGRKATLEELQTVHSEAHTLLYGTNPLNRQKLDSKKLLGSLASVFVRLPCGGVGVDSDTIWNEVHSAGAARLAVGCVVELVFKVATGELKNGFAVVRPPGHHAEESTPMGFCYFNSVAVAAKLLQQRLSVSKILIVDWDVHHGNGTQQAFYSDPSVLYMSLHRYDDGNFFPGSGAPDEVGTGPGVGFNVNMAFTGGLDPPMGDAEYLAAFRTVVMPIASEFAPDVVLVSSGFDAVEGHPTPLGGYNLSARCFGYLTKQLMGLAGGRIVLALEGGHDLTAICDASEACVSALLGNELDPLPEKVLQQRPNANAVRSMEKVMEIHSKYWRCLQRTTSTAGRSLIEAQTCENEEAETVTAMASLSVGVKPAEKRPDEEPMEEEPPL

Structure (SMILES): C#CCCCC(=O)NCCOCCOCCOc1ccc(C(=O)c2ccc(/C=C/C(=O)O)cc2)cc1
- inhibition at 10 µM [1]: < 5%
- inhibition at 72 h, 10 µM [2]: < 5%

Structure (SMILES): O=C(NO)c1sc2ccccc2c1S(=O)(=O)c1ccccc1
- half-life at 1 µM [3]: 0.0283 h
- solubility thermodynamic at 72 h [4]: 3350 µM (≈ 1120 µg/mL)
- half-life at 1 µM [5]: 0.0233 h
- half-life [6]: > 24 h
- half-life [7]: > 24 h
- half-life at 1 µM [8]: 12.8 h
- Activity [9]: Dose-dependent effect
- half-life at 1 µM [10]: 1.31 h

Structure (SMILES): C#CCCCC(=O)NCCOCCOCCOc1ccc(C(=O)c2ccc(/C=C/C(=O)NO)cc2)cc1
- selectivity ratio [11]: 21
- EC50 [12]: 1.2 µM
- CC50 at 72 h [13]: 25 µM

Structure (SMILES): [N-]=[N+]=NCCCNC(=O)CCCC[C@@H]1SC[C@@H]2NC(=O)N[C@@H]21
- inhibition at 10 µM [1]: < 10%
- inhibition at 72 h, 10 µM [2]: < 5%

Structure (SMILES): O=C(/C=C/c1ccc(C(=O)c2ccccc2)cc1)NO
- selectivity ratio [11]: 33
- EC50 [12]: 0.48 µM
- CC50 at 72 h [13]: 16 µM

Structure (SMILES): O=C(/C=C/c1ccc(C(F)(F)F)cc1)NO
- IC50 [14]: > 200 µM
- IC50 [15]: > 100 µM
- IC50 [16]: > 100 µM
- half-life at 1 µM [3]: 0.247 h
- solubility thermodynamic at 72 h [4]: 648 µM (≈ 150 µg/mL)
- IC50 [17]: 5.53 µM
- half-life at 1 µM [5]: 8.88 h
- IC50 [18]: > 100 µM
- half-life [6]: > 24 h
- IC50 [19]: 4.11 µM
- IC50 [20]: 6.36 µM
- half-life [7]: 23.2 h
- IC50 [21]: > 100 µM
- half-life at 1 µM [8]: 11.6 h
- IC50 [22]: 34.7 µM
- IC50 [23]: 5.37 µM
- inhibition [24]: < 5%
- IC50 [25]: 0.183 µM
- IC50 [26]: > 100 µM
- IC50 [27]: 6.32 µM
- IC50 [28]: > 100 µM
- IC50 [29]: 0.954 µM
- IC50 [30]: > 100 µM
- IC50 [31]: > 100 µM
- IC50 [32]: > 100 µM
- IC50 [33]: > 100 µM
- Activity [9]: Dose-dependent effect
- IC50 [34]: > 100 µM
- IC50 [35]: 21.5 µM
- half-life at 1 µM [10]: 0.77 h
- IC50 [36]: > 100 µM
